ChEMBL document CHEMBL1126614, “Substituted benzamides with conformationally restricted side chains. 5. Azabicyclo[x.y.z] derivatives as 5-HT4 receptor agonists and gastric motility stimulants” (1993)
In brackets after ≈: the same amount, converted by molar mass.

How the values were obtained:
Canis familiaris = species: Canis familiaris; experiment: Tested against rhythmic contractile activity in a Heidenhain pouch dog preparation; type: functional, Canis lupus familiaris
[1] = molecular target: 5-hydroxytryptamine receptor 4 (Rattus norvegicus) (UniProt Q62758); experiment: Stimulatory activity of intragastric pressure was tested in the rat; type: functional
Chain of 5-hydroxytryptamine receptor 4 (Rattus norvegicus) (Q62758 whole entry): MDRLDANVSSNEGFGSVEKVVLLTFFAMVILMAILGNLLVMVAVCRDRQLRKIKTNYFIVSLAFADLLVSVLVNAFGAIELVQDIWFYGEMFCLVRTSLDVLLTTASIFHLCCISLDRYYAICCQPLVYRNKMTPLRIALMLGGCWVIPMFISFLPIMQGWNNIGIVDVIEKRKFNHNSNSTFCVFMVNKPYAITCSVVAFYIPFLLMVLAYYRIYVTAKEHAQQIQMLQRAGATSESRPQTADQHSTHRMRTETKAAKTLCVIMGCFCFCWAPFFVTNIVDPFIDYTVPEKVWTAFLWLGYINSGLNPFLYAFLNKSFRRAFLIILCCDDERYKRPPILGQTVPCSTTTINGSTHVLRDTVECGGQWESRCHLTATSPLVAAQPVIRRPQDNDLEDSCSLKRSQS

[2] = molecular target: T1, Serotonin 3 (5-HT3) receptor (Rattus norvegicus) (UniProt P35563+Q9JJ16); experiment: Tested for 5-HT 3 receptor antagonist potency by ability to inhibit the reflex bradycardia, the Bezold-Jarisch reflex in the rat; type: functional
[3] = molecular target: 5-hydroxytryptamine receptor 4 (Cavia porcellus) (UniProt O70528); experiment: Relative ability to increase cholinergically mediated contractions in isolated ileum of guinea pig; type: functional, tissue-based
Chain of 5-hydroxytryptamine receptor 4 (Cavia porcellus) (O70528 whole entry): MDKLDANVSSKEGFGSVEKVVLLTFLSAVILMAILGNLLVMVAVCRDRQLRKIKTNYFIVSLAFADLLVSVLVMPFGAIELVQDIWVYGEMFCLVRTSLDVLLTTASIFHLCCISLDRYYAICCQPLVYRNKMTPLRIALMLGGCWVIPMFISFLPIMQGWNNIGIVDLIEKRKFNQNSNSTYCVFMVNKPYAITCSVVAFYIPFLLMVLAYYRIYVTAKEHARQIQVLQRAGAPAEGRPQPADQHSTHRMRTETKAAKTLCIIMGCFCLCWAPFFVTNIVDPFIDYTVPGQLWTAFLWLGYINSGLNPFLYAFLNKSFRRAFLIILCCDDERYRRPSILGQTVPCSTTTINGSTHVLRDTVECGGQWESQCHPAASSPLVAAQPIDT

[4] = molecular target: T1, Serotonin 3 (5-HT3) receptor (Rattus norvegicus); experiment: Compound was tested for its 5-HT 3 receptor antagonist potency by their ability to inhibit the reflex bradycardia, the Bezold-Jarisch reflex in the rat; type: functional

SMILES | ED50 [1] [mg/kg] | ID50 [2] [mg/kg] | EC20 [3] [µg/mL] | ID50 [4] [mg/kg] | LAD (Canis familiaris) [mg/kg]
COc1cc(N)c(Cl)cc1C(=O)NC1CC2CCCN(C2)C1 (configuration not stated) | > 1 | 0.0055 | 0.002 (≈ 0.00618 µM) | – | >0.1
COc1cc(N)c(Cl)cc1C(=O)NC12CCC(CC1)NC2 | – | – | – | 0.086 | 0.01
COc1cc(N)c(Cl)cc1C(=O)N[C@H]1CCN2CCC[C@@H]1C2 [listing 1 of 2 here] | – | – | – | – | 0.01
COc1cc(N)c(Cl)cc1C(=O)NC1CC(C)NCC12CCC2 (configuration not stated) | – | – | 0.15 (≈ 0.444 µM) | – | 0.25
COc1cc(N)c(Cl)cc1C(=O)NC1CCNCC12CCC2C (configuration not stated) | – | – | 0.018 (≈ 0.0533 µM) | – | 0.05
COc1cc(N)c(Cl)cc1C(=O)N[C@H]1CCN2CCC[C@@H]1C2 (relative stereo) [listing 1 of 2 here] | – | – | – | – | 0.05
COc1cc(N)c(Cl)cc1C(=O)N[C@H]1CCN2CCC[C@@H]1C2 (relative stereo) [listing 2 of 2 here] | – | > 0.1 | 0.087 (≈ 0.269 µM) | – | –
COc1cc(N)c(Cl)cc1C(=O)NC1CCN2CCOC1C2 (single isomer, unassigned; (+)) [listing 1 of 2 here] | – | – | – | – | 0.01
COc1cc(N)c(Cl)cc1C(=O)NC1CCN2CCCC1C2 (single isomer, unassigned; (-)) | – | 0.0039 | 0.032 (≈ 0.0988 µM) | – | –
COc1cc(N)c(Cl)cc1C(=O)NC1CCN2CCOC1C2 (stereo in doubt) | 0.1 | 0.019 | – | – | –
COc1cc(N)c(Cl)cc1C(=O)NC1CCN2CCCC1C2 (stereo in doubt) [RENZAPRIDE] | – | – | – | – | 0.01
COc1cc(N)c(Cl)cc1C(=O)NC1CCN2CCCC1C2 (stereo in doubt; 5d) [RENZAPRIDE] | – | – | – | – | 0.005
COc1cc(N)c(Cl)cc1C(=O)NC1CN2CCCC1C2 (stereo in doubt; endo) [listing 1 of 2 here] | – | – | – | – | 0.01
COc1cc(N)c(Cl)cc1C(=O)NC1C2CC3CCN(C2)CC1C3 (stereo in doubt; endo) [listing 1 of 2 here] | – | – | – | – | 0.01
COc1cc(N)c(Cl)cc1C(=O)NC1CN2CCCC1C2 (stereo in doubt; endo) [listing 2 of 2 here] | 0.06 | 0.003 | 0.017 (≈ 0.0549 µM) | – | –
COc1cc(N)c(Cl)cc1C(=O)NC1CN2CCCC1C2 (stereo in doubt; exo) [listing 1 of 2 here] | – | – | – | – | 0.05
COc1cc(N)c(Cl)cc1C(=O)NC1C2CC3CCN(C2)CC1C3 (stereo in doubt; exo) [listing 1 of 2 here] | – | – | – | – | 0.05
COc1cc(N)c(Cl)cc1C(=O)NC1C2CC3CCN(C2)CC1C3 (stereo in doubt; exo) [listing 2 of 2 here] | – | 0.059 | – | – | –
COc1cc(N)c(Cl)cc1C(=O)NC1CN2CCCC1C2 (stereo in doubt; exo) [listing 2 of 2 here] | – | 0.045 | 0.047 (≈ 0.152 µM) | – | –

More lines, main results first:

ED50 [1] [mg/kg] | ID50 [2] [mg/kg] | EC20 [3] [µg/mL] | ID50 [4] [mg/kg] | SMILES | LAD (Canis familiaris) [mg/kg]
0.5 | – | – | – | COc1cc(N)c(Cl)cc1C(=O)NC1CCN2CCSC1C2 (configuration not stated) | 0.01
– | – | 0.056 (≈ 0.159 µM) | – | COc1cc(N)c(Cl)cc1C(=O)NC1CCNC(C)C12CCC2C (configuration not stated) | 0.05
– | 0.0042 | 0.022 (≈ 0.0679 µM) | – | COc1cc(N)c(Cl)cc1C(=O)N[C@H]1CCN2CCC[C@@H]1C2 [listing 2 of 2 here] | –
0.1 | 0.018 | – | – | COc1cc(N)c(Cl)cc1C(=O)NC1CCN2CCOC1C2 (single isomer, unassigned; (+)) [listing 2 of 2 here] | –
0.1 | 0.032 | – | – | COc1cc(N)c(Cl)cc1C(=O)NC1CCN2CCOC1C2 (single isomer, unassigned; (-)) | –
0.1 | 0.0033 | 0.007 (≈ 0.0216 µM) | – | COc1cc(N)c(Cl)cc1C(=O)NC1CCN2CCCC1C2 (stereo in doubt) | –
0.1 | 0.03 | 0.0004 (≈ 0.00124 µM) | – | COc1cc(N)c(Cl)cc1C(=O)NC1CCN2CCCC1C2 (stereo in doubt; 5d) | –
– | 0.0034 | – | – | COc1cc(N)c(Cl)cc1C(=O)NC1C2CC3CCN(C2)CC1C3 (stereo in doubt; endo) [listing 2 of 2 here] | –
1 | 0.5 | 0.12 (≈ 0.4 µM) | – | CCN(CC)CCNC(=O)c1cc(Cl)c(N)cc1OC [METOCLOPRAMIDE] | 0.25
